In assay [1] the target is LXRβ (Homo sapiens (Human), UniProt P55055). The assay can be described thus: In vitro assay LXRβ: PathHunter NHR CHO cells, LXRβ / Steroid Receptor Co-activator Peptide enzyme fragment complementation. Format: cell-based. The following applies: PathHunter NHR CHO cells, full-length human LXRβ and SRCP, chemiluminescent signal; read-out: LXRβ PPI. The procedure, abridged: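 Enzyme fragment complementation read-out: CHO cells stably expressing ProLink-tagged full-length human LXRβ plus nuclear enzyme acceptor–SRCP fusion, seeded and held overnight at 37° C. Medium with charcoal-dextran filtered serum; final vehicle 1%. Chemiluminescence measured after signal generation.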

Assay [2] addresses SREBP-2 (Homo sapiens (Human), UniProt Q12772). Nature of the assay: In vitro assay SREBP-2: PathHunter U2OS SREBP-2 Nuclear Translocation Cell Line, U18666A-stimulated. The following applies: PathHunter U2OS SREBP-2 nuclear translocation cells, U18666A 10 μM, overnight (16 hours). Format: cell-based.

Experimental findings from patent publication US20230340011A1 (Asteroid Therapeutics, priority 2022, published 2023) are described below.

Bounds are passed on as bounds.

Sequence of LXRβ (P55055 whole entry, the tested form may be a part): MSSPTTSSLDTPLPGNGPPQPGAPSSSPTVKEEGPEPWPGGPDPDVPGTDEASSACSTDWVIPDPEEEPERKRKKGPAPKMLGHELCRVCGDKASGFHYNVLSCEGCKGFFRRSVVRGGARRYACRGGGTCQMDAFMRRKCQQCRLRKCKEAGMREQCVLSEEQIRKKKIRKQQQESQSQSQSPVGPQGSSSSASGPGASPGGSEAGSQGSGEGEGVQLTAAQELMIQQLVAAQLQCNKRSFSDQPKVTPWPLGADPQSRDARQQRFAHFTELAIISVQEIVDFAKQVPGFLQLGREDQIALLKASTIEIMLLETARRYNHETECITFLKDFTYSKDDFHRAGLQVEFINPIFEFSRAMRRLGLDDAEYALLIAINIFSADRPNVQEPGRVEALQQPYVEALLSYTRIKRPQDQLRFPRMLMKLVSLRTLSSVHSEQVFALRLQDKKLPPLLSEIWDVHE

What is called IC50 is the concentration that gives 50% inhibition. Consider `C[C@H](CCC(=O)N1CCN(c2ccncn2)C[C@@H]1C)[C@H]1CC[C@H]2[C@@H]3CC=C4C[C@@H](O)CC[C@]4(C)[C@H]3CC[C@]12C` [Example 588, (4R)-4-[(1R,3aS,3bS,7S,9aR,9bS,11aR)-7-hydroxy-9a,11a-dimethyl-1H,2H,3H,3aH,3bH,4H,6H,7H,8H,9H,9aH,9bH,10H,11H,11aH-cyclopenta[a]phenanthren-1-yl]-1-[(2S)-2-methyl-4-(pyrimidin-4-yl)piperazin-1-yl]pentan-1-one], for which the EC50 in assay [1] was greater than 10000 nM. The IC50 in assay [2] is less than 250 nM.

Turning to `C[C@H](CCC(=O)N1CCN(c2ccnn2C)C[C@@H]1C)[C@H]1CC[C@H]2[C@@H]3CC=C4C[C@@H](O)CC[C@]4(C)[C@H]3CC[C@]12C` [Example 609, (R)-4-((3S,8S,9S,10R,13R,14S,17R)-3-hydroxy-10,13-dimethyl-2,3,4,7,8,9,10,11,12,13,14,15,16,17-tetradecahydro-1H-cyclopenta[a]phenanthren-17-yl)-1-((S)-2-methyl-4-(1-methyl-1H-pyrazol-5-yl)piperazin-1-yl)pentan-1-one], the EC50 in assay [1] is greater than 10000 nM. Besides, the IC50 in assay [2] is less than 250 nM.

As for `COC(=O)N1CCC(N(C)C(=O)CC[C@@H](C)[C@H]2CC[C@H]3[C@@H]4CC=C5C[C@@H](O)CC[C@]5(C)[C@H]4CC[C@]23C)CC1` [Example 643, Methyl 4-[(4R)-4-[(1R,3aS,3bS,7S,9aR,9bS,11aR)-7-hydroxy-9a,11a-dimethyl-1H,2H,3H,3aH,3bH,4H,6H,7H,8H,9H,9aH,9bH,10H,11H,11aH-cyclopenta[a]phenanthren-1-yl]-N-methylpentanamido]piperidine-1-carboxylate], in assay [1], the EC50 is greater than 10000 nM. Moreover, the IC50 in assay [2] is less than 250 nM.

Consider `C[C@H](CCc1cccnc1)[C@H]1CC[C@H]2[C@@H]3CC=C4C[C@@H](O)CC[C@]4(C)[C@H]3CC[C@]12C` [Example 159, (3S,8S,9S,10R,13R,14S,17R)-10,13-dimethyl-17-((R)-4-(pyridin-3-yl)butan-2-yl)-2,3,4,7,8,9,10,11,12,13,14,15,16,17-tetradecahydro-1H-cyclopenta[a]phenanthren-3-ol], for which the EC50 in assay [1] was greater than 10000 nM. Besides, the IC50 in assay [2] was less than 250 nM.

Consider `C[C@@H]1CCCN(C(=O)CC[C@@H](C)[C@H]2CC[C@H]3[C@@H]4CC=C5C[C@@H](O)CC[C@]5(C)[C@H]4CC[C@]23C)C1` [Example 111, (R)-4-((3S,8S,9S,10R,13R,14S,17R)-3-hydroxy-10,13-dimethyl-2,3,4,7,8,9,10,11,12,13,14,15,16,17-tetradecahydro-1H-cyclopenta[a]phenanthren-17-yl)-1-((R)-3-methylpiperidin-1-yl) pentan-1-one], for which the EC50 in assay [1] fell in the range of 250 to 1000 nM. The IC50 in assay [2] was less than 250 nM.

For the molecule `C[C@H](CCC(=O)N1CCN(c2ccnc(O)n2)CC1)[C@H]1CC[C@H]2[C@@H]3CC=C4C[C@@H](O)CC[C@]4(C)[C@H]3CC[C@]12C` [Example 559, (R)-4-((3S,8S,9S,10R,13R,14S,17R)-3-hydroxy-10,13-dimethyl-2,3,4,7,8,9,10,11,12,13,14,15,16,17-tetradecahydro-1H-cyclopenta[a]phenanthren-17-yl)-1-(4-(2-hydroxypyrimidin-4-yl)piperazin-1-yl)pentan-1-one], the EC50 in assay [1] is greater than 10000 nM. The IC50 in assay [2] was less than 250 nM.

`C[C@H](CCC(=O)N1CCN(C(=O)c2cn(C)nn2)CC1)[C@H]1CC[C@H]2[C@@H]3CC=C4C[C@@H](O)CC[C@]4(C)[C@H]3CC[C@]12C` [Example 308, (R)-4-((3S,8S,9S,10R,13R,14S,17R)-3-hydroxy-10,13-dimethyl-2,3,4,7,8,9,10,11,12,13,14,15,16,17-tetradecahydro-1H-cyclopenta[a]phenanthren-17-yl)-1-(4-(1-methyl-1H-1,2,3-triazole-4-carbonyl)piperazin-1-yl)pentan-1-one]: the EC50 in assay [1] is greater than 10000 nM. In addition, in assay [2], the IC50 was less than 250 nM.

On to `C[C@H](CCC(=O)N1CCN(c2cc(O)ncn2)CC1)[C@H]1CC[C@H]2[C@@H]3CC=C4C[C@@H](O)CC[C@]4(C)[C@H]3CC[C@]12C` [Example 631, (4R)-4-[(1R,3aS,3bS,7S,9aR,9bS,11aR)-7-hydroxy-9a,11a-dimethyl-1H,2H,3H,3aH,3bH,4H,6H,7H,8H,9H,9aH,9bH,10H,11H,11aH-cyclopenta[a]phenanthren-1-yl]-1-[4-(6-hydroxypyrimidin-4-yl)piperazin-1-yl]pentan-1-one], for which the EC50 in assay [1] was greater than 10000 nM. In assay [2], this molecule registered an IC50 of less than 250 nM.

For `C[C@H](CCC(=O)N(C)OCCC(F)(F)F)[C@H]1CC[C@H]2[C@@H]3CC=C4C[C@@H](O)CC[C@]4(C)[C@H]3CC[C@]12C` [Example 29, (R)-4-((3S,8S,9S,10R,13R,14S,17R)-3-hydroxy-10,13-dimethyl-2,3,4,7,8,9,10,11,12,13,14,15,16,17-tetradecahydro-1H-cyclopenta[a]phenanthren-17-yl)-N-methyl-N-(3,3,3-trifluoropropoxy)pentanamide], in assay [1], the EC50 was greater than 10000 nM. In assay [2], the IC50 is less than 250 nM.

Turning to `C[C@H](CCC(=O)N1CCN(c2ncncc2O)CC1)[C@H]1CC[C@H]2[C@@H]3CC=C4C[C@@H](O)CC[C@]4(C)[C@H]3CC[C@]12C` [Example 630, (R)-4-((3S,8S,9S,10R,13R,14S,17R)-3-hydroxy-10,13-dimethyl-2,3,4,7,8,9,10,11,12,13,14,15,16,17-tetradecahydro-1H-cyclopenta[a]phenanthren-17-yl)-1-(4-(5-hydroxypyrimidin-4-yl)piperazin-1-yl)pentan-1-one], the EC50 in assay [1] is greater than 10000 nM. The molecule further showed an IC50 in assay [2] of less than 250 nM.

For the molecule `C[C@H](CCC(=O)N1CCN(c2ncncc2N)CC1)[C@H]1CC[C@H]2[C@@H]3CC=C4C[C@@H](O)CC[C@]4(C)[C@H]3CC[C@]12C` [Example 632, (R)-1-(4-(5-aminopyrimidin-4-yl)piperazin-1-yl)-4-((3S,8S,9S,10R,13R,14S,17R)-3-hydroxy-10,13-dimethyl-2,3,4,7,8,9,10,11,12,13,14,15,16,17-tetradecahydro-1H-cyclopenta[a]phenanthren-17-yl)pentan-1-one], in assay [1], the EC50 is greater than 10000 nM. Also, in assay [2], the IC50 is less than 250 nM.

`Cc1nccc(CC[C@@H](C)[C@H]2CC[C@H]3[C@@H]4CC=C5C[C@@H](O)CC[C@]5(C)[C@H]4CC[C@]23C)n1` [Example 190, (3S,8S,9S,10R,13R,14S,17R)-10,13-dimethyl-17-((R)-4-(2-methylpyrimidin-4-yl)butan-2-yl)-2,3,4,7,8,9,10,11,12,13,14,15,16,17-tetradecahydro-1H-cyclopenta[a]phenanthren-3-ol]: the EC50 in assay [1] fell in the range of 1000 to 10000 nM. The IC50 in assay [2] was in the range of 250 to 1000 nM.

Consider `C[C@H](COC(=O)N1CCN(c2ccncc2)CC1)[C@H]1CC[C@H]2[C@@H]3CC=C4C[C@@H](O)CC[C@]4(C)[C@H]3CC[C@]12C` [Example 597, (2S)-2-[(1R,3aS,3bS,7S,9aR,9bS,11aS)-7-hydroxy-9a,11a-dimethyl-1H,2H,3H,3aH,3bH,4H,6H,7H,8H,9H,9aH,9bH,10H,11H,11aH-cyclopenta[a]phenanthren-1-yl]propyl 4-(pyridin-4-yl)piperazine-1-carboxylate], for which the EC50 in assay [1] was greater than 10000 nM. Besides, the IC50 in assay [2] was less than 250 nM.

On to `C[C@H](CCC(=O)N1CCC(NS(C)(=O)=O)CC1)[C@H]1CC[C@H]2[C@@H]3CC=C4C[C@@H](O)CC[C@]4(C)[C@H]3CC[C@]12C` [Example 414, N-(1-((R)-4-((3S,8S,9S,10R,13R,14S,17R)-3-hydroxy-10,13-dimethyl-2,3,4,7,8,9,10,11,12,13,14,15,16,17-tetradecahydro-1H-cyclopenta[a]phenanthren-17-yl)pentanoyl)piperidin-4-yl)methanesulfonamide], for which, in assay [1], the EC50 is greater than 10000 nM. This molecule gave a 50% inhibitory concentration (IC50) in assay [2] of 250 to 1000 nM.

Consider `COC(=O)N1CCN(C(=O)CC[C@@H](C)[C@H]2CC[C@H]3[C@@H]4CC=C5C[C@](O)(C(F)(F)F)CC[C@]5(C)[C@H]4CC[C@]23C)CC1` [Example 285, methyl 4-((R)-4-((3S,8S,9S,10R,13R,14S,17R)-3-hydroxy-10,13-dimethyl-3-(trifluoromethyl)-2,3,4,7,8,9,10,11,12,13,14,15,16,17-tetradecahydro-1H-cyclopenta[a]phenanthren-17-yl)pentanoyl)piperazine-1-carboxylate], for which the EC50 in assay [1] is greater than 10000 nM. Also, in assay [2], the IC50 lay in the range of 1000 to 10000 nM.

Consider `C[C@H](CCC(=O)N1CC[C@H](Oc2ccncc2)[C@@H](C)C1)[C@H]1CC[C@H]2[C@@H]3CC=C4C[C@@H](O)CC[C@]4(C)[C@H]3CC[C@]12C` [Example 571, (R)-4-((3S,8S,9S,10R,13R,14S,17R)-3-hydroxy-10,13-dimethyl-2,3,4,7,8,9,10,11,12,13,14,15,16,17-tetradecahydro-1H-cyclopenta[a]phenanthren-17-yl)-1-((3S,4S)-3-methyl-4-(pyridin-4-yloxy)piperidin-1-yl)pentan-1-one], for which the EC50 in assay [1] was greater than 10000 nM. Moreover, the IC50 in assay [2] is less than 250 nM.

As to `C[C@H](CCC(=O)N1CCN(c2ccncc2)[C@@H](C)C1)[C@H]1CC[C@H]2[C@@H]3CC=C4C[C@@H](O)CC[C@]4(C)[C@H]3CC[C@]12C` [Example 567, (R)-4-((3S,8S,9S,10R,13R,14S,17R)-3-hydroxy-10,13-dimethyl-2,3,4,7,8,9,10,11,12,13,14,15,16,17-tetradecahydro-1H-cyclopenta[a]phenanthren-17-yl)-1-((S)-3-methyl-4-(pyridin-4-yl)piperazin-1-yl)pentan-1-one], in assay [1], the EC50 is greater than 10000 nM. The same molecule came in with an IC50 in assay [2] of less than 250 nM.
